Data on four compounds can be found in US20030119748A1 (Idun Pharmaceuticals, Inc., priority 1996, published 2003).

Each structure is given as a SMILES string. Some results are limits rather than exact numbers.

The test deals with T1, mICE (Mus musculus, UniProt P29452).
T1 sequence (P29452 119-402): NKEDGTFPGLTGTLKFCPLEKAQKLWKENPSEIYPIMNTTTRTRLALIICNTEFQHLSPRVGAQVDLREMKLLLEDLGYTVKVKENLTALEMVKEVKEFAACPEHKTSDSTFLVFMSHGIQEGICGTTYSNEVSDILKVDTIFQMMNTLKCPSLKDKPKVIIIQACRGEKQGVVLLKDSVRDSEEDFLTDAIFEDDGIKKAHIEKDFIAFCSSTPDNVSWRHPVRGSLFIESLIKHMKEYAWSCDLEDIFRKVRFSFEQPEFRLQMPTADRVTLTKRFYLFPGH
Nature of the test: Dissociation constant Ki for irreversible inhibitors, continuous assay (Example 1B). Format: biochemical. The conditions noted are these: compounds of Formula B and Formula C, procedure of Example 1B. The source says:
B. Determination of the Dissociation Constant K1 and Irreversible Rate Constant k3 for Irreversible Inhibitors
For the irreversible inhibition of a ICE/ced-3 Family Protease enzyme with a competitive irreversible inhibitor; using the model represented by the following formulas: [drawing 4]
The product formation at time t may be expressed as: [drawing 5]
where E, I, EI, and E-I denote the active enzyme, inhibitor, non-covalent enzyme-inhibitor complex and covalent enzyme-inhibitor adduct, respectively. The K1 value is the overall dissociation constant of reversible binding steps, and k3 is the irreversible rate constant. The [S] and Ks values are the substrate concentration and the dissociation constant of the substrate bound to the enzyme, respectively. [E]^T is the total enzyme concentration.
The above equations were used to determine the K1 and k3 values of a given inhibitor bound to a ICE/ced-3 family protease. Thus, a continuous assay was run for sixty minutes at various concentrations of the inhibitor and the substrate. The assay was formulated essentially the same as described in Example 1A above, except that the reaction was initiated by adding the enzyme to the substrate-inhibitor mixture. The K1 and k3 values were obtained by simulating the product AMC formation as a function of time according to Equation 1. The reference compound for this assay was Cbz-ValAlaAsp-CH2F.
The compound `CC(C)[C@H](NC(=O)c1cc2ccccc2n1-c1ccccc1)C(=O)NC(CC(=O)O)C(=O)CF` (stereo partly shown) [Example 55, N-[(1-Phenylindole-2-Carbonyl)Valinyl]-3-Amino-4-Oxo-5-Fluoropentanoic Acid] yielded a Ki of less than 1000 nM. To `Cc1c(C(=O)NC(C(=O)NC(CC(=O)O)C(=O)COc2ccccc2C(N)=O)C(C)C)n(C)c2ccccc12` (stereo not shown) [Example 74, N-(1,3-Dimethyl-indole-2-carbonyl)-Valinyl-3-amino-5-(2-aminocarbonyl-1-phenyl)oxy-4-oxo-pentanoic Acid] belongs less than 1000 nM; to `CC(C)C(NC(=O)c1cc2ccccc2n1CCCc1ccccc1)C(=O)NC(CC(=O)O)C(=O)CF` (stereo not shown) [Example 52, N-[(1-(3′-Phenylpropyl)Indole-2-Carbonyl)Valinyl]-3-Amino-4-Oxo-5-Fluoropentanoic Acid], less than 1000 nM. To `CC(C)[C@H](NC(=O)c1cc2ccccc2n1CC(=O)O)C(=O)NC(CC(=O)O)C(=O)CF` (stereo partly shown) [Example 58, N-[(1-(Carboxymethyl)Indole-2-Carbonyl)Valinyl]-3-Amino-4-Oxo-5-Fluoropentanoic Acid] belongs less than 1000 nM.
